Consider three molecules from ChEMBL document CHEMBL1201862, “PubChem BioAssay data set” (2004).

Activity calls are given as the source filed them.

One assay has as its system H9c2. The assay is described as follows: cells. Format: functional, cell-based. The note with it: Rattus norvegicus, H9c2, Myocardium.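 Note: confirmatory concentration-response retest of ultra-high-throughput screening hits for modulation of myocardial damage; cell death induced by hydrogen peroxide oxidative stress; compound pretreatment for 60 min then peroxide exposure for 2 h; potency is for protecting the cells against peroxide damage rather than for killing them.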
A short description of assay [1]: Vero cell cytotoxicity, dose response, cytotoxicity control for Vif-APOBEC3G degradation inhibitor project, Vero cells (AID 1117358). Format: functional. The note with it: Human immunodeficiency virus 1, Vero.
Assay [2] has as its target T1, Mannose-6-phosphate isomerase (Homo sapiens, UniProt P34949).
T1 sequence (P34949 whole entry): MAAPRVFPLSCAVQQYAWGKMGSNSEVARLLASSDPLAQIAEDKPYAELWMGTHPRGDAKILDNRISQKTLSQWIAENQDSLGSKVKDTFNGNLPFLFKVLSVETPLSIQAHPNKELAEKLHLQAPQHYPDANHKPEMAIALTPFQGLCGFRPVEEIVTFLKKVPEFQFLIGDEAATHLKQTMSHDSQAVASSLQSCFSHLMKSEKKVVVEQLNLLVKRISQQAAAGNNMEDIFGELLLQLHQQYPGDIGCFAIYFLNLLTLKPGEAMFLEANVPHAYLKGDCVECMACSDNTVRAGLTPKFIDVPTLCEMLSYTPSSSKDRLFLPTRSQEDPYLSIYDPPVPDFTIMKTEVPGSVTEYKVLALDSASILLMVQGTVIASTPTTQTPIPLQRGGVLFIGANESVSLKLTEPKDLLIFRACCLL
In words: human PMI inhibitors, high substrate, primary screen, biochemical, fluorescence intensity, high mannose 6-phosphate (AID 1220).

The nature of assay [3]: THP-1 cell cytotoxicity, dose response, cytotoxicity control for Vif-APOBEC3G degradation inhibitor project, THP-1 cells (AID 1117359). Format: functional. Particulars: Human immunodeficiency virus 1, THP-1.
The subject of the next assay is Vero. The assay is described as follows: Vero cell cytotoxicity, cytotoxicity control for flavivirus capping enzyme inhibitors (AID 588742). Format: functional. The note with it: Chlorocebus sabaeus.
A further assay addresses Genome polyprotein (dengue virus type 2, UniProt P29990). The assay is described as follows: Dengue-2 NS5 methyltransferase inhibitors, primary screen, biochemical, confirmation dose response (AID 588689). Format: functional.
Assay [4] is described as follows: Shn3 3'UTR reporter inhibitors, dose response, cell-based, Clone20 osteoblasts, firefly luciferase, cherry-picked (AID 624132).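 Note: firefly luciferase luminescence from reporter carrying the Shn3 3'UTR in osteoblasts.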 Format: functional.
The nature of assay [5]: HepG2 cell cytotoxicity, dose response, cytotoxicity control for Shn3 inhibitor project, CellTiter-Glo, cherry-picked (AID 624134). Format: functional, cell-based.
Assay [6] can be described thus: control 3'UTR Renilla luciferase suppression, dose response, counter-screen for Shn3 inhibitor project, cell-based, Clone20-Shn3RL, cherry-picked (AID 624133). Format: functional. (In general: A counterscreen serves to expose hits that act by an unwanted route or on another target.)
Another assay addresses T2, Caspase-6 (Homo sapiens, UniProt P55212).
T2 sequence (P55212 whole entry): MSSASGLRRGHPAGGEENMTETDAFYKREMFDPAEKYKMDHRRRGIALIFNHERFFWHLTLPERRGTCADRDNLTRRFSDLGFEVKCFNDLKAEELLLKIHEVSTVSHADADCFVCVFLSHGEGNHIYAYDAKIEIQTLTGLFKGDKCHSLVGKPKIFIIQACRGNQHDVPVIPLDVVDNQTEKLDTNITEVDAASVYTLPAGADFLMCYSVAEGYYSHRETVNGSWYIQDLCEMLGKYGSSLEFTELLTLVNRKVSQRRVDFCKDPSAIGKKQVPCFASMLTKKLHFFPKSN
In words: human caspase-6 inhibitors, dose response, biochemical, VEID-R110 fluorescence, cherry-pick (AID 720632).

Sequence of Genome polyprotein (P29990 2492-3391 limits assumed): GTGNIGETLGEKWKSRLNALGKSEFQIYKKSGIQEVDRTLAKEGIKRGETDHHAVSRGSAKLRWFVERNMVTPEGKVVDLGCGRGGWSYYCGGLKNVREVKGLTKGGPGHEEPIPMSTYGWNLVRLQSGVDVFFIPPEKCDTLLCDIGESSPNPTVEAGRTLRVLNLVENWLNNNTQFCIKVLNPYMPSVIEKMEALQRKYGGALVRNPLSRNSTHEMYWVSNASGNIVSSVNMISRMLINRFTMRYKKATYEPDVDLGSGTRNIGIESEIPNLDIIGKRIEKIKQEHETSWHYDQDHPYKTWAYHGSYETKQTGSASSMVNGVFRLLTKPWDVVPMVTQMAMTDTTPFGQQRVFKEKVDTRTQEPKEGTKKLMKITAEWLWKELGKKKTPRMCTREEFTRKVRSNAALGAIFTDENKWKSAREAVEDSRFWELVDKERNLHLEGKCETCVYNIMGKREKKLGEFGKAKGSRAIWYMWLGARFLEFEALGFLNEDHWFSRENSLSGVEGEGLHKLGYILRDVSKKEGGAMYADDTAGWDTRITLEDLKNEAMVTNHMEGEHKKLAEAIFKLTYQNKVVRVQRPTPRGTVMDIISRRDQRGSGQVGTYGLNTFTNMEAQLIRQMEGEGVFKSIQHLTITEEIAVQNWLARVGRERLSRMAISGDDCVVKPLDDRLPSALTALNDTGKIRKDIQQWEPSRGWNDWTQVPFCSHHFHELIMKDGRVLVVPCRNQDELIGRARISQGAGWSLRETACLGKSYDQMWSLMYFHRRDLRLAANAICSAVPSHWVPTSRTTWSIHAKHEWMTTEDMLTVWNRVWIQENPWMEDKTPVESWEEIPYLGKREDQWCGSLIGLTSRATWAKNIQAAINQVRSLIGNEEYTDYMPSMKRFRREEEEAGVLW

With `Cc1ccc(C)c2nc(O)c(CN(Cc3ccc4c(c3)OCO4)Cc3nnnn3Cc3ccco3)cc12`, in the assay on H9c2, the IC50 (as a rule, the point on the concentration scale where inhibition reaches its midpoint) is > 79 µM (inactive). Also, the CC50 (in general, the concentration that lowers cell viability or growth by half) in assay [1] was > 40 µM (active).
Regarding `COc1ccccc1-n1c(SCC(=O)NCc2ccc3c(c2)OCO3)nc2cc([N+](=O)[O-])ccc21`, in assay [2], the IC50 was > 50 µM (not active). Also, in assay [3], the CC50 was > 40 µM (active).
As to `CC(=O)N1CCc2c(sc(NC(=O)c3ccc([N+](=O)[O-])o3)c2C(N)=O)C1`, the 50% cytotoxic concentration (CC50) in the assay on Vero was 4.1 µM (active). In addition, the IC50 at Genome polyprotein is 89.3 µM (active). Moreover, the AC50 – broadly, the concentration at which the activity in the assay is half-maximal – in assay [4] was 1.85 µM (active); in assay [5], 20 µM (active); in assay [6] it was 13.1 µM (active); on Caspase-6, 12.7 µM (active).
